Each structure is given as a SMILES string.

The test deals with mice. Put plainly: Innate behavioral response to odorant in odor box (3D depth imaging, AR-HMM). The format is in vivo, mouse.

Consider `CC1=NC(C)SC1C` (stereo not drawn) [TMT], for which, under “TMT delivered to one quadrant of the box via olfactometer”, the “behavioral response to odor-containing quadrant” value was “avoided the quadrant containing the predator cue and displayed prolonged periods of immobility”. Further, where the note is “after TMT exposure”, the “per frame entropy rate with self-transitions” value turned out to be 0.64±0.02 bits and the “per frame entropy rate without self-transitions” value was 3.66±0.08 bits. In addition, under “after TMT exposure, in 300 minutes of imaging”, the “number of times the most commonly-expressed freezing trigram was expressed” value was determined as 716 times. Besides, where the note is “mice in square box, TMT 5% delivered to one quadrant, newly concatenated pausing modules”, the “average during-sequence velocity of freezing sequences” value is listed as −0.14±0.54 mm/sec. Also, the “behavioral modules introduced or eliminated relative to control” value (n=15 in TMT, n=25 control, model co-trained) is recorded as “no new modules were introduced or eliminated relative to control”.

(Values after US11944429B2, “Automatically classifying animal behavior” (President and Fellows of Harvard College, priority 2015, dated 2024).)
